The text below walks through data of patent publication US20240115654A1, “INTRAVENOUS ADMINISTRATION OF ENGINEERED ANTIMICROBIAL AMPHIPHILIC PEPTIDES” (priority 2021, published 2024).

Values after ≈ are worked out from the molar mass of the structure shown. Peptide text beside a SMILES is read from it.

The subject of series [1] is Staphylococcus aureus isolates (n = 104). Kind of series: microbe, parasite or virus in culture. The procedure: Comparator antibiotics were supplied by Micromyx, and stock solutions were prepared on the first day of testing using solvents recommended by CLSI (1). Stock solutions of all compounds were made at 40× the final testing concentration and stored at −80° C. prior to testing. Information regarding compound source, catalog and lot number, testing concentrations and drug diluent for the comparators and test agent are detailed below in Table 3.
The test organisms evaluated in this study consisted of clinical isolates from the Micromyx Repository and reference isolates from the American Type Culture Collection (ATCC; Manassas, VA). The clinical isolates were obtained from USA hospitals. Upon initial receipt at Micromyx, the organisms were sub-cultured onto an appropriate agar medium. Following incubation, colonies were harvested from these plates and cell suspensions prepared and frozen at −80° C. with a cryoprotectant. Prior to testing, the isolates were streaked from frozen vials onto Trypticase Soy Agar with 5% sheep blood (Becton Dickenson [BD]; Sparks, MD; Lot Nos. 7173618, 7166759, 7208688, 72144895, 7228505 and Remel Lenexa, KS Lot No. 212574). Plates were incubated at 35° C. overnight.
Mueller Hinton II broth (MHB II; BD; Lot Nos. 6258541 and 7143896) was used for MIC testing of aerobic organisms.
MIC values were determined using a broth microdilution procedure described by CLSI (1, 3). Automated liquid handlers (Multidrop 384, Labsystems, Helsinki, Finland; Biomek 2000 and Biomek FX, Beckman Coulter, Fullerton CA) were used to conduct serial dilutions and liquid transfers.
To prepare the drug mother plates, which would provide the serial drug dilutions for the replicate daughter plates, the wells of columns 2-12 of standard 96-well microdilution plates (Costar 3795) were filled with 150 μl of the designated diluent for each row of drug. The test articles and comparator compounds (300 μl at 40× the highest concentration to be tested) were dispensed into the appropriate wells in column 1. The Biomek 2000 was then used to make 2-fold serial dilutions in the mother plates from column 1 through column 11. The wells of Column 12 contained no drug and served as the organism growth control wells for the assay.
The daughter plates were loaded with 185 μL per well of MHB II using the Multidrop 384. The daughter plates were completed on the Biomek FX instrument which transferred 5 μL of drug solution from each well of a mother plate to the corresponding well of each daughter plate in a single step. A standardized inoculum of each test organism was prepared per CLSI methods (1). The inoculum for each organism was dispensed into sterile reservoirs divided by length (Beckman Coulter), and the Biomek 2000 was used to inoculate the plates. Daughter plates were placed on the Biomek 2000 work surface in reverse orientation so that inoculation took place from low to high drug concentration.
Plates were stacked 3-4 high, covered with a lid on the top plate, placed in plastic bags, and incubated at 35° C. for 16 to 20 hrs. Following incubation, the microplates were removed from the incubator and viewed from the bottom using a plate viewer. […] The MIC was read and recorded as the lowest concentration of drug that inhibited visible growth of the organism.
Clinical breakpoints to determine percent resistance within a given organism group were obtained from CLSI (3), with the exception of colistin for K. pneumoniae, Enterobacter spp., and E. coli, which are only available from EUCAST.

The conditions of series [2]: mouse, in vivo, iv, 3 mg/kg.
Text: Male CD-1 mice will be received from an approved vendor and allowed to acclimate for a minimum of two days. Fasting will be not required.
All dosing syringes will be weighed prior to and following dosing. IV doses will be administered as a slow bolus (over ˜30 seconds) via direct venipuncture of a tail vein. All animals will be observed at dosing and each scheduled collection. All abnormalities will be recorded.
Terminal blood samples will be collected via cardiac puncture following inhalation anesthesia.
Sample Processing and Storage: Blood samples will be collected into K2EDTA tubes and stored on wet ice. Whole blood will be processed to plasma by centrifugation (3500 rpm at 5° C.) within 30 minutes of collection. Plasma samples will be split into 2 equal aliquots and each transferred into 96 well plates (matrix tubes) and stored at −80° C. until analysis. Administered doses will be determined gravimetrically.
Prior to extraction, a known concentration of a mass-adjusted internal standard (IS) will be added to assess recovery and allow for quantitation. Purified samples will be further subjected to high-performance liquid chromatography (HPLC) using C18 300 or 130 angstrom columns prior to MS/MS analysis. Multiple charge states will be observed by MS, so MS/MS will be employed to enable multiple reaction monitoring (MRM) analyses to determine the most MRM transitions with the highest signal-to-noise gain. Compound plasma concentrations will be determined by comparing to and compensating with co-purified IS peak intensity and validated calibrated standard curves.
Pharmacokinetic parameters will be calculated using non-compartmental methods as implemented in the Phoenix® WinNonlin® ver. 6.3 comprehensive TK/PK analysis software program (Pharsight Corporation; Mountain View, CA) using an IV infusion model. Pharmacokinetic analysis will be conducted using a 30-minute intravenous infusion time. Therefore, 30 minutes will be added to each sample time point postdose to obtain nominal time for TK analysis. Nominal times and dosage levels will be used for all calculations. Values below the lower limit of quantitation (BLQ) will be assigned a value of zero for the pharmacokinetic calculations. Microsoft® Excel® 2013 will be used for receipt of bioanalytical data, minor formatting, including setting BLQ values to “0”, transfer into WinNonlin® for PK analysis, and calculation of the mean when an approximated value will be excluded. All plasma concentration data from all animals will be included in the analysis. Graphical presentations will be performed using Microsoft® Excel® 2013.
Where [3] appears, read: Staphylococcus aureus (n = 104), all methicillin-resistant.

In series [1] (S. aureus MRSA, n=104), `CC(C)[C@H](NC(=O)[C@H](Cc1c[nH]c2ccccc12)NC(=O)[C@H](CCCNC(=N)N)NC(=O)[C@H](CCCNC(=N)N)NC(=O)[C@@H](NC(=O)[C@@H](NC(=O)[C@H](CCCNC(=N)N)NC(=O)[C@@H](NC(=O)[C@@H](NC(=O)[C@H](CCCNC(=N)N)NC(=O)[C@H](CCCNC(=N)N)NC(=O)[C@H](Cc1c[nH]c2ccccc12)NC(=O)[C@@H](NC(=O)[C@H](CCCNC(=N)N)NC(=O)[C@H](CCCNC(=N)N)NC(=O)[C@@H](NC(=O)[C@H](CCCNC(=N)N)NC(=O)[C@H](CCCNC(=N)N)NC(=O)[C@@H](NC(=O)[C@H](Cc1c[nH]c2ccccc12)NC(=O)[C@H](CCCNC(=N)N)NC(=O)[C@@H](N)CCCNC(=N)N)C(C)C)C(C)C)C(C)C)C(C)C)C(C)C)C(C)C)C(C)C)C(=O)N[C@@H](CCCNC(=N)N)C(=O)N[C@@H](CCCNC(=N)N)C(N)=O` [SEQ ID NO: 1] (H-RRWVRRVRRVWRRVVRVVRRWVRR-NH2) displayed an MIC50 of 4 µg/mL (≈ 1.18 µM), an MIC90 of 8 µg/mL (≈ 2.35 µM) and an MIC range of 1 to 16 µg/mL. Further, in series [1] (setting [3]), the MIC50 was found to be 4 µg/mL (≈ 1.18 µM), the MIC90 amounted to 8 µg/mL (≈ 2.35 µM) and the “Mode (MIC)” value is 4 µg/mL. In addition, the Tmax in series [2] was 2 min.
